Key:
Assay type in all cases: in vivo
corn (Zea mays) = experiment: Test A postemergence
In short: (§1)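 Each rating is a visual injury score from 0 to 100 given about 10 d after treatment, judged against untreated controls kept alongside in the greenhouse. In loam soil–sand blend, seeds got a preemergence directed soil spray, while postemergence plants were 2 to 10 cm tall at spraying.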

Kochia (Kochia scoparia) [1] = experiment: Test A postemergence
In short: as §1

[2] = system: pigweed (Amaranthus retroflexus); experiment: Test A postemergence
In short: as §1

[3] = system: wheat (Triticum aestivum); experiment: Test A postemergence
In short: as §1

[4] = system: ragweed (common ragweed, Ambrosia elatior); experiment: Test A postemergence
In short: as §1

[5] = system: blackgrass (Alopecurus myosuroides); experiment: Test A postemergence; details: for Blackgrass plant response rating: visual injury rating on 0 to 100 scale (0 no effect, 100 complete control)
In short: as §1

[6] = system: ryegrass, Italian (Italian ryegrass, Lolium multiflorum); experiment: Test A postemergence
In short: as §1

[7] = system: barnyardgrass (Echinochloa crus-galli); experiment: Test A postemergence; details: for Barnyardgrass plant response rating: visual injury rating on 0 to 100 scale (0 no effect, 100 complete control)
In short: as §1

[8] = system: giant foxtail (Setaria faberii); experiment: Test A postemergence
In short: as §1

[9] = system: Galium (catchweed bedstraw, Galium aparine); experiment: Test A postemergence
In short: as §1

Kochia (Kochia scoparia) [10] = experiment: Test A preemergence; details: for Kochia plant response rating (0 to 100 scale, 0 is no effect, 100 is complete control): visual injury approx. 10 d
In short: as §1

[11] = system: pigweed (Amaranthus retroflexus); experiment: Test A preemergence; details: for Pigweed plant response rating (0 to 100 scale, 0 is no effect, 100 is complete control): visual injury approx. 10 d
[12] = system: ragweed (common ragweed, Ambrosia elatior); experiment: Test A preemergence
In short: as §1

[13] = system: ryegrass, Italian (Italian ryegrass, Lolium multiflorum); experiment: Test A preemergence; details: for Ryegrass, Italian plant response rating (0 to 100 scale, 0 is no effect, 100 is complete control): visual injury approx. 10 d
In short: as §1

[14] = system: barnyardgrass (Echinochloa crus-galli); experiment: Test A preemergence; details: for Barnyardgrass plant response rating (0 to 100 scale, 0 is no effect, 100 is complete control): visual injury approx. 10 d
In short: as §1

[15] = system: giant foxtail (Setaria faberii); experiment: Test A preemergence; details: for Foxtail, Giant plant response rating (0 to 100 scale, 0 is no effect, 100 is complete control): visual injury approx. 10 d
In short: as §1

rice (Oryra sativa) = experiment: Test B flooded paddy test; details: Flood, 0 to 100 scale where 0 is no effect and 100 is complete control, 13 to 15 d
In short: (§2)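 Response scored visually against untreated controls, 0 = no effect and 100 = complete control, 13–15 d after treatment in the greenhouse. Compounds added to paddy water held 3 cm above soil surface. Treatment given at 2-leaf stage.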

[16] = system: ducksalad (Heteranthera limosa); experiment: Test B flooded paddy test; details: Flood, 0 to 100 scale where 0 is no effect and 100 is complete control, 13 to 15 d
In short: as §2

[17] = system: sedge, umbrella (small-flower umbrella sedge, Cyperus difformis); experiment: Test B flooded paddy test; details: Flood, 0 to 100 scale where 0 is no effect and 100 is complete control, 13 to 15 d
In short: as §2

[18] = system: barnyardgrass (Echinochloa crus-galli); experiment: Test B flooded paddy test; details: Flood, 0 to 100 scale where 0 is no effect and 100 is complete control, 13 to 15 d
In short: as §2

[19] = 125 g ai/ha, postemergence, visual rating after approx. 10 d, 0 to 100 scale (0 no effect, 100 complete control)
[20] = Postemergence, 500 g ai/ha, 0 to 100 scale where 0 is no effect and 100 is complete control
[21] = 125 g ai/ha, postemergence, approx. 10 d
[22] = 125 g ai/ha, Preemergence, visual injury after approximately 10 d, 0 to 100 scale where 0 is no effect and 100 is complete control
[23] = 500 g ai/ha, postemergence, visual injury, 0 to 100 scale (0 no effect, 100 complete control), approx. 10 d
[24] = 500 g ai/ha, preemergence, 0 to 100 scale, 0 = no effect, 100 = complete control
[25] = 125 g ai/ha, postemergence, visual injury rating on 0 to 100 scale (0 no effect, 100 complete control), approx. 10 d
[26] = 125 g ai/ha, postemergence, visual injury after approximately 10 d, 0 to 100 scale (0 no effect, 100 complete control)
[27] = 125 g ai/ha, preemergence, visual rating after approx. 10 d, 0 to 100 scale where 0 is no effect and 100 is complete control

COc1c(F)ccc(NC(=O)C2C(=O)NCC2c2cccc(OC(F)(F)C(F)F)c2)c1F (racemic) [Compound 540]
Plant response rating, Corn (corn (Zea mays); [19]): 30
Plant response rating, Corn (corn (Zea mays); [20]): 60
Plant response rating, Kochia (Kochia (Kochia scoparia) [1]; [19]): 0
Plant response rating, Kochia (Kochia (Kochia scoparia) [1]; [20]): 0
Plant response rating, Pigweed [2, 19]: 0
Plant response rating, Pigweed [2, 20]: 0
Plant response rating, Wheat [3, 19]: 0
Plant response rating, Wheat [3, 20]: 60
Plant response rating, Ragweed [4, 19]: 0
Plant response rating, Ragweed [4, 20]: 20
Blackgrass plant response rating [5, 21]: 50
Plant response rating, Blackgrass [5, 20]: 60
Plant response rating, Ryegrass, Italian [6, 19]: 0
Plant response rating, Ryegrass, Italian [6, 20]: 30
Barnyardgrass plant response rating [7, 21]: 60
Plant response rating, Barnyardgrass [7, 20]: 70
Plant response rating, Foxtail, Giant [8, 19]: 70
Plant response rating, Foxtail, Giant [8, 20]: 90
Plant response rating, Galium [9, 19]: 60
Plant response rating, Galium [9, 20]: 70
Plant response rating, Kochia (Kochia (Kochia scoparia) [10]; [22]): 0
Kochia plant response rating (0 to 100 scale, 0 is no effect, 100 is complete control) (Kochia (Kochia scoparia) [10]; Preemergence, 500 g ai/ha): 20
Plant response rating, Pigweed [11, 22]: 0
Pigweed plant response rating (0 to 100 scale, 0 is no effect, 100 is complete control) ([11]; Preemergence, 500 g ai/ha): 60
Plant response rating, Ragweed [12, 22]: 0
Plant response rating, Ryegrass, Italian [13, 22]: 0
Ryegrass, Italian plant response rating (0 to 100 scale, 0 is no effect, 100 is complete control) ([13]; Preemergence, 500 g ai/ha): 40
Plant response rating, Barnyardgrass [14, 22]: 80
Barnyardgrass plant response rating (0 to 100 scale, 0 is no effect, 100 is complete control) ([14]; Preemergence, 500 g ai/ha): 90
Plant response rating, Foxtail, Giant [15, 22]: 90
Foxtail, Giant plant response rating (0 to 100 scale, 0 is no effect, 100 is complete control) ([15]; Preemergence, 500 g ai/ha): 90
Plant response rating, Rice (rice (Oryra sativa); 250 g ai/ha): 0
Plant response rating, Ducksalad ([16]; 250 g ai/ha): 75
Plant response rating, Sedge, Umbrella ([17]; 250 g ai/ha): 0
Plant response rating, Barnyardgrass ([18]; 250 g ai/ha): 55

O=C1NCC(c2cccc(C(F)(F)F)c2)C1C(=O)Nc1ccc(Cl)cc1F (racemic) [Compound 675]
Plant response rating, Corn (corn (Zea mays); [19]): 0
Plant response rating, Corn (corn (Zea mays); [23]): 0
Plant response rating, Kochia (Kochia (Kochia scoparia) [1]; [19]): 0
Plant response rating, Kochia (Kochia (Kochia scoparia) [1]; [23]): 0
Plant response rating, Pigweed [2, 19]: 0
Plant response rating, Pigweed [2, 23]: 0
Plant response rating, Wheat [3, 19]: 0
Plant response rating, Wheat [3, 23]: 0
Plant response rating, Ragweed [4, 19]: 0
Plant response rating, Ragweed [4, 23]: 0
Plant response rating, Blackgrass [5, 19]: 0
Plant response rating, Blackgrass [5, 23]: 20
Plant response rating, Ryegrass, Italian [6, 19]: 0
Plant response rating, Ryegrass, Italian [6, 23]: 0
Plant response rating, Barnyardgrass [7, 19]: 40
Plant response rating, Barnyardgrass [7, 23]: 70
Plant response rating, Foxtail, Giant [8, 19]: 50
Plant response rating, Foxtail, Giant [8, 23]: 80
Plant response rating, Galium [9, 19]: 0
Plant response rating, Galium [9, 23]: 0
Plant response rating, Kochia (Kochia (Kochia scoparia) [10]; [22]): 0
Plant response rating, Kochia (Kochia (Kochia scoparia) [10]; [24]): 0
Plant response rating, Pigweed [11, 22]: 0
Plant response rating, Pigweed [11, 24]: 0
Plant response rating, Ragweed [12, 22]: 0
Plant response rating, Ragweed [12, 24]: 0
Plant response rating, Ryegrass, Italian [13, 22]: 0
Plant response rating, Ryegrass, Italian [13, 24]: 20
Plant response rating, Barnyardgrass [14, 22]: 70
Plant response rating, Barnyardgrass [14, 24]: 80
Plant response rating, Foxtail, Giant [15, 22]: 70
Plant response rating, Foxtail, Giant [15, 24]: 90
Plant response rating, Rice (rice (Oryra sativa); 500 g ai/ha): 15
Plant response rating, Ducksalad ([16]; 500 g ai/ha): 75
Plant response rating, Sedge, Umbrella ([17]; 500 g ai/ha): 0
Plant response rating, Barnyardgrass ([18]; 500 g ai/ha): 60

O=C1NCC(c2ccnc(C(F)(F)F)c2)C1C(=O)Nc1ccccc1F (racemic) [Compound 513]
Corn plant response rating (corn (Zea mays); [25]): 20
Plant response rating, Corn (corn (Zea mays); [20]): 60
Kochia plant response rating (Kochia (Kochia scoparia) [1]; [25]): 20
Plant response rating, Kochia (Kochia (Kochia scoparia) [1]; [20]): 50
Pigweed plant response rating [2, 25]: 30
Plant response rating, Pigweed [2, 20]: 60
Wheat plant response rating [3, 25]: 0
Plant response rating, Wheat [3, 20]: 30
Ragweed plant response rating [4, 25]: 10
Plant response rating, Ragweed [4, 20]: 20
Blackgrass plant response rating [5, 21]: 20
Plant response rating, Blackgrass [5, 20]: 40
Ryegrass, Italian plant response rating [6, 25]: 0
Plant response rating, Ryegrass, Italian [6, 20]: 30
Barnyardgrass plant response rating [7, 21]: 80
Plant response rating, Barnyardgrass [7, 20]: 90
Foxtail, Giant plant response rating [8, 25]: 80
Plant response rating, Foxtail, Giant [8, 20]: 80
Galium plant response rating [9, 25]: 0
Plant response rating, Galium [9, 20]: 40
Plant response rating, Kochia (Kochia (Kochia scoparia) [10]; [22]): 0
Kochia plant response rating (0 to 100 scale, 0 is no effect, 100 is complete control) (Kochia (Kochia scoparia) [10]; Preemergence, 500 g ai/ha): 20
Plant response rating, Pigweed [11, 22]: 0
Pigweed plant response rating (0 to 100 scale, 0 is no effect, 100 is complete control) ([11]; Preemergence, 500 g ai/ha): 0
Plant response rating, Ragweed [12, 22]: 0
Ragweed plant response rating (0 to 100 scale, 0 is no effect, 100 is complete control) ([12]; Preemergence, 500 g ai/ha, visual injury approx. 10 d): 0
Plant response rating, Ryegrass, Italian [13, 22]: 20
Ryegrass, Italian plant response rating (0 to 100 scale, 0 is no effect, 100 is complete control) ([13]; Preemergence, 500 g ai/ha): 30
Plant response rating, Barnyardgrass [14, 22]: 40
Barnyardgrass plant response rating (0 to 100 scale, 0 is no effect, 100 is complete control) ([14]; Preemergence, 500 g ai/ha): 90
Plant response rating, Foxtail, Giant [15, 22]: 90
Foxtail, Giant plant response rating (0 to 100 scale, 0 is no effect, 100 is complete control) ([15]; Preemergence, 500 g ai/ha): 90
Plant response rating, Rice (rice (Oryra sativa); 250 g ai/ha): 30
Plant response rating, Ducksalad ([16]; 250 g ai/ha): 90
Plant response rating, Sedge, Umbrella ([17]; 250 g ai/ha): 0
Plant response rating, Barnyardgrass ([18]; 250 g ai/ha): 30

O=C1NCC(c2ccc(I)cc2)C1C(=O)Nc1ccccc1F (racemic) [Compound 702]
Plant response rating, Corn (corn (Zea mays); [26]): 0
Plant response rating, Corn (corn (Zea mays); [23]): 0
Plant response rating, Kochia (Kochia (Kochia scoparia) [1]; [26]): 0
Plant response rating, Kochia (Kochia (Kochia scoparia) [1]; [23]): 0
Plant response rating, Pigweed [2, 26]: 0
Plant response rating, Pigweed [2, 23]: 0
Plant response rating, Wheat [3, 26]: 0
Plant response rating, Wheat [3, 23]: 0
Plant response rating, Ragweed [4, 26]: 0
Plant response rating, Ragweed [4, 23]: 0
Plant response rating, Blackgrass [5, 26]: 0
Plant response rating, Blackgrass [5, 23]: 0
Plant response rating, Ryegrass, Italian [6, 26]: 0
Plant response rating, Ryegrass, Italian [6, 23]: 0
Plant response rating, Barnyardgrass [7, 26]: 70
Plant response rating, Barnyardgrass [7, 23]: 70
Plant response rating, Foxtail, Giant [8, 26]: 30
Plant response rating, Foxtail, Giant [8, 23]: 80
Plant response rating, Galium [9, 26]: 0
Plant response rating, Galium [9, 23]: 40
Plant response rating, Kochia (Kochia (Kochia scoparia) [10]; [27]): 20
Plant response rating, Kochia (Kochia (Kochia scoparia) [10]; [24]): 20
Plant response rating, Pigweed [11, 27]: 0
Plant response rating, Pigweed [11, 24]: 30
Plant response rating, Ragweed [12, 27]: 0
Plant response rating, Ragweed [12, 24]: 0
Plant response rating, Ryegrass, Italian [13, 27]: 0
Plant response rating, Ryegrass, Italian [13, 24]: 0
Plant response rating, Barnyardgrass [14, 27]: 70
Plant response rating, Barnyardgrass [14, 24]: 90
Plant response rating, Foxtail, Giant [15, 27]: 90
Plant response rating, Foxtail, Giant [15, 24]: 90
Plant response rating, Rice (rice (Oryra sativa); 500 g ai/ha): 20
Plant response rating, Ducksalad ([16]; 500 g ai/ha): 100
Plant response rating, Sedge, Umbrella ([17]; 500 g ai/ha): 0
Plant response rating, Barnyardgrass ([18]; 500 g ai/ha): 50

Reference: patent US12077503B2, “Substituted cyclic amides and their use as herbicides” (FMC CORPORATION, priority 2015, dated 2024)
